Test results as given in patent US10125075B2, “P-toluic acid production method” (TORAY INDUSTRIES, INC., priority 2015, dated 2018).
Converted amounts (≈) assume the structure as drawn.

Assays:
[1] = pH 7, 25° C.; 'known to be'; cited from earlier work
solubility in water = conditions: 25 °C
physchem = conditions: 25 °C, pH 7, aqueous buffer

## Cc1ccc(C(=O)O)cc1 [p-toluic acid]
[1]
  solubility in water: 0.3 mg/mL (≈ 2.2 mM)
Solubility in water; pH 0, aqueous buffer
  solubility: ≤ 0.1 mg/mL

## CC1C(O)CC(O)(C(=O)O)CC1O (stereo not shown) [Compound (2)]
Solubility in water; pH 7, aqueous buffer
  solubility: ≥ 50 mg/mL

## CC1C(O)C=C(C(=O)O)CC1O (stereo not shown) [Compound (1)]
physchem
  solubility: ≥ 50 mg/mL
